Assay results published in patent US9573895B2, “Tetracycline compounds” (Tetraphase Pharmaceuticals, Inc., priority 2012, dated 2017).
Values after ≈ are worked out from the molar mass of the structure shown. Like-named read-outs stand apart in the source and are kept apart here.

Key:
Type in all cases: cell-based
[1] = tested on: Staphylococcus aureus SA161 (HA-MRSA, tetracycline-resistant, tet(M)); test: MIC assay SA161
[2] = tested on: Enterococcus faecalis EF159 (Tetracycline-resistant, tet(M)); test: MIC assay EF159; settings: Table 5
[3] = tested on: Enterococcus faecalis EF327 (Wound isolate (US) tet(M)); test: MIC assay EF327
[4] = tested on: Enterococcus faecium EF404 (Blood isolate (US) tet(M)); test: MIC assay EF404
[5] = tested on: Streptococcus pneumoniae SP106 (ATCC 49619); test: MIC assay SP106; settings: Table 5
[6] = tested on: Streptococcus pneumoniae SP160 (Tetracycline-resistant, tet(M)); test: MIC assay SP160
[7] = tested on: Escherichia coli EC107 (ATCC 25922); test: MIC assay EC107
[8] = tested on: Escherichia coli EC155 (Tetracycline-resistant, tet(A))
[9] = tested on: Enterobacter cloacae EC603 (Urine isolate (Spain)); test: MIC assay EC603
[10] = tested on: Klebsiella pneumoniae KP153 (Tetracycline-resistant, tet(A), MDR, ESBL+); test: MIC assay KP153; settings: Table 5
[11] = tested on: Klebsiella pneumoniae KP457 (2009 ESBL+, CTX-M, OXA); test: MIC assay KP457
[12] = tested on: Proteus mirabilis PM385 (Urine ESBL+ isolate); test: MIC assay PM385
[13] = tested on: Pseudomonas aeruginosa PA555 (ATCC BAA-47, wild type strain PAO1); test: MIC assay PA555
[14] = tested on: Acinetobacter baumannii AB250 (Cystic fibrosis isolate, MDR); test: MIC assay AB250
[15] = tested on: Stenotrophomonas maltophilia SM256 (Cystic fibrosis isolate, MDR); test: MIC assay SM256
[16] = tested on: Burkholderia cenocepacia BC240 (Cystic fibrosis isolate, MDR); test: MIC assay BC240
KP194 7E+05 = test: MIC assay KP194; settings: Table 5
From the text: The assays were run as follows.

[17] = tested on: Pseudomonas aeruginosa PA556 (Multiple-Mex efflux pump knockout strain)
[18] = tested on: Pseudomonas aeruginosa PA1145 (Strain used in murine pneumonia model); test: MIC assay PA1145; settings: control compounds, numeric

| Structure (SMILES) | MIC SP106 49619 [5] [µg/mL] | MIC EC155 tetA ([8]; Table 5) [µg/mL] | MIC EC155 tetA ([8]; Table 6) [µg/mL] | MIC KP153 tetA [10] [µg/mL] | MIC KP457 CTX-M-15 ([11]; Table 6) [µg/mL] | MIC KP457 CTX-M-15 ([11]; Table 7) [µg/mL] | MIC KP457 CTX-M-15 ([11]; control compounds, numeric) [µg/mL] | MIC PM385 ([12]; Table 7) [µg/mL] | MIC PM385 ([12]; control compounds, numeric) [µg/mL] | MIC PA555 BAA-47 ([13]; control compounds, numeric) [µg/mL] | MIC AB250 ([14]; Table 5) [µg/mL] | MIC AB250 ([14]; Table 6) [µg/mL] | MIC AB250 ([14]; Table 7) [µg/mL] | MIC SM256 ([15]; Table 5) [µg/mL] | MIC SM256 ([15]; Table 6) [µg/mL] | MIC SM256 ([15]; Table 7) [µg/mL] | MIC (KP194 7E+05) [µg/mL] | MIC EC155 tetA ([8]; Table 7) [µg/mL] | MIC EC155 tetA ([8]; control compounds, numeric) [µg/mL] | MIC PA555 BAA-47 ([13]; Table 7) [µg/mL] | other results |
| --- | --- | --- | --- | --- | --- | --- | --- | --- | --- | --- | --- | --- | --- | --- | --- | --- | --- | --- | --- | --- | --- |
| CN(C)c1ccc(O)c2c1C[C@H]1C[C@H]3[C@H](N(C)C)C(O)=C(C(N)=O)C(=O)[C@@]3(O)C(O)=C1C2=O [Minocycline, minocycline] | 0.015 (≈ 0.0328 µM) | 8 (≈ 17.5 µM) | 8 (≈ 17.5 µM) | 8 (≈ 17.5 µM) | 8 (≈ 17.5 µM) | 8 (≈ 17.5 µM) | 8 (≈ 17.5 µM) | 16 (≈ 35 µM) | 16 (≈ 35 µM) | 16 (≈ 35 µM) | 8 (≈ 17.5 µM) | 8 (≈ 17.5 µM) | 8 (≈ 17.5 µM) | 0.5 (≈ 1.09 µM) | 0.5 (≈ 1.09 µM) | 0.5 (≈ 1.09 µM) | 32 (≈ 69.9 µM) | – | – | – | MIC SA161 tetM ([1]; Table 5): 8 µg/mL (≈ 17.5 µM); MIC SA161 tetM ([1]; Table 6): 8 µg/mL (≈ 17.5 µM); MIC SA161 tetM ([1]; Table 7): 8 µg/mL (≈ 17.5 µM); MIC SA161 tetM ([1]; control compounds, numeric): 8 µg/mL (≈ 17.5 µM); MIC EF159 tetM [2]: 16 µg/mL (≈ 35 µM); MIC EF327 tetM ([3]; Table 7): 32 µg/mL (≈ 69.9 µM); MIC EF327 tetM ([3]; control compounds, numeric): 32 µg/mL (≈ 69.9 µM); MIC EF404 tetM ([4]; Table 7): 8 µg/mL (≈ 17.5 µM); MIC EF404 tetM ([4]; control compounds, numeric): 8 µg/mL (≈ 17.5 µM); MIC SP160 tetM ([6]; Table 4): 2 µg/mL (≈ 4.37 µM); MIC SP160 tetM ([6]; Table 5): 2 µg/mL (≈ 4.37 µM); MIC SP160 tetM ([6]; Table 7): 2 µg/mL (≈ 4.37 µM); MIC SP160 tetM ([6]; control compounds, numeric): 2 µg/mL (≈ 4.37 µM); MIC EC107 25922 ([7]; Table 5): 0.5 µg/mL (≈ 1.09 µM); MIC EC107 25922 ([7]; control compounds, numeric): 0.5 µg/mL (≈ 1.09 µM); MIC EC603 tetA ([9]; Table 6): 33 µg/mL (≈ 72.1 µM); MIC EC603 tetA ([9]; Table 7): 33 µg/mL (≈ 72.1 µM); MIC BC240 ([16]; Table 5): 8 µg/mL (≈ 17.5 µM); MIC BC240 ([16]; Table 6): 8 µg/mL (≈ 17.5 µM); MIC BC240 ([16]; Table 7): 8 µg/mL (≈ 17.5 µM) |
| CN(C)[C@@H]1C(O)=C(C(N)=O)C(=O)[C@@]2(O)C(O)=C3C(=O)c4c(O)cccc4C[C@H]3C[C@@H]12 [Sancycline, sancycline] | 0.25 (≈ 0.603 µM) | 32 (≈ 77.2 µM) | 32 (≈ 77.2 µM) | 32 (≈ 77.2 µM) | 8 (≈ 19.3 µM) | 8 (≈ 19.3 µM) | – | 8 (≈ 19.3 µM) | 8 (≈ 19.3 µM) | 32 (≈ 77.2 µM) | 16 (≈ 38.6 µM) | 16 (≈ 38.6 µM) | 16 (≈ 38.6 µM) | 1 (≈ 2.41 µM) | 1 (≈ 2.41 µM) | 1 (≈ 2.41 µM) | 32 (≈ 77.2 µM) | 32 (≈ 77.2 µM) | 32 (≈ 77.2 µM) | 32 (≈ 77.2 µM) | MIC ([11]; Klebsiella pneumoniae, read-out: MIC KP457 CTX-M-15): 8 µg/mL (≈ 19.3 µM); MIC PA556 ([17]; Table 5): 1 µg/mL (≈ 2.41 µM); MIC PA556 ([17]; Table 6): 1 µg/mL (≈ 2.41 µM); MIC PA556 ([17]; Table 7): 1 µg/mL (≈ 2.41 µM) |
| CN(C)c1cc(NC(=O)CNC(C)(C)C)c(O)c2c1C[C@H]1C[C@H]3[C@H](N(C)C)C(O)=C(C(N)=O)C(=O)[C@@]3(O)C(O)=C1C2=O [Tigecycline, tigecycline] | 0.016 (≈ 0.0273 µM) | 0.5 (≈ 0.854 µM) | 0.5 (≈ 0.854 µM) | 1 (≈ 1.71 µM) | 1 (≈ 1.71 µM) | 1 (≈ 1.71 µM) | 1 (≈ 1.71 µM) | 4 (≈ 6.83 µM) | 4 (≈ 6.83 µM) | 16 (≈ 27.3 µM) | 8 (≈ 13.7 µM) | 8 (≈ 13.7 µM) | 8 (≈ 13.7 µM) | 1 (≈ 1.71 µM) | 1 (≈ 1.71 µM) | 1 (≈ 1.71 µM) | 8 (≈ 13.7 µM) | 0.5 (≈ 0.854 µM) | 0.5 (≈ 0.854 µM) | 16 (≈ 27.3 µM) | MIC PA556 ([17]; Table 5): 0.25 µg/mL (≈ 0.427 µM); MIC PA556 ([17]; Table 6): 0.25 µg/mL (≈ 0.427 µM); MIC PA556 ([17]; Table 7): 0.25 µg/mL (≈ 0.427 µM); MIC PA1145 Vivisource [18]: 16 µg/mL (≈ 27.3 µM) |
